Assay results reported in PubChem BioAssay AID1259408 (Genetic Toxicology Data Bank (GENE-TOX), 2018).
Activity calls are given as the source filed them. The rule behind the calls is not given here.

Test system: GENE-TOX genotoxicity assays, various organisms and cells
Experiment: GENE-TOX mutagenicity studies
Details: for call: Assay Type: In vivo carcinogenicity studies, Assay Code: CCG+
Excerpt: GENE-TOX provides genetic toxicology (mutagenicity) test data from expert peer review of open scientific literature for more than 3,000 chemicals from the United States Environmental Protection Agency (EPA). GENE-TOX was established to select assay systems for evaluation, review data in the scientific literature, and recommend proper testing protocols and evaluation procedures for these systems.
GENE-TOX covers the years 1991 - 1998. It is no longer updated.
This is an archive assay for GENE-TOX mutagenicity studies.

[1] = Species/Cell Type: Escherichia coli polA (W3119 vs P3478), Assay Type: Rec-assay, DNA effects (bacterial DNA repair), Assay Code: RE1T, Evaluation Type: Evaluation A (Pre-1980)
[2] = Species/Cell Type: Human, Assay Type: Sister-chromatid exchange (SCE) in vitro, Assay Code: SC1+D, Dose Response: With dose response, Evaluation Type: Evaluation B (Post-1980)
[3] = Species/Cell Type: Nonhuman, Evaluation Type: Evaluation A (Pre-1980)
[4] = Species/Cell Type: Salmonella typhimurium (one or more of the five standard strains: TA98, TA100, TA1535, TA1537, and TA1538), Assay Type: Histidine reverse gene mutation, Ames assay, Assay Code: SAL-, Evaluation Type: Evaluation A (Pre-1980)
[5] = Species/Cell Type: Saccharomyces cerevisiae, Assay Type: Mitotic recombination or gene conversion, Assay Code: YEC-, Evaluation Type: Evaluation A (Pre-1980)
[6] = Species/Cell Type: Salmonella typhimurium (one or more of the five standard strains: TA98, TA100, TA1535, TA1537, and TA1538), Assay Type: Histidine reverse gene mutation, Ames assay, Assay Code: SALT, Evaluation Type: Evaluation A (Pre-1980)
[7] = Species/Cell Type: Nonhuman, Assay Type: Sister-chromatid exchange (SCE) in vitro, Assay Code: SC2T, Evaluation Type: Evaluation B (Post-1980)
[8] = Species/Cell Type: Salmonella typhimurium (one or more of the five standard strains: TA98, TA100, TA1535, TA1537, and TA1538), Assay Type: Histidine reverse gene mutation, Ames assay, Assay Code: SAL+, Evaluation Type: Evaluation A (Pre-1980)
[9] = Species/Cell Type: Arabidopsis species, Assay Type: Gene mutation, Assay Code: ARM+, Evaluation Type: Evaluation A (Pre-1980)

## CC/C(=C(/CC)c1ccc(O)cc1)c1ccc(O)cc1
[1]
  mutagenic call: no conclusion
Species/Cell Type: Fischer rat embryo (RLV/1706) cells, Assay Type: Cell transformation, viral enhanced, Assay Code: CTR+, Evaluation Type: Evaluation A (Pre-1980)
  mutagenic call: active; positive
Species/Cell Type: Human diploid fibroblasts, Assay Type: Unscheduled DNA synthesis (UDS) in vitro, DNA effects, Assay Code: UDHT, Evaluation Type: Evaluation A (Pre-1980)
  mutagenic call: no conclusion
Species/Cell Type: Human lymphocytes, Assay Type: Sister-chromatid exchange (SCE) in vitro, Assay Code: SCL+D, Dose Response: With dose response, Evaluation Type: Evaluation B (Post-1980)
  mutagenic call: active; positive
[2]
  mutagenic call: active; positive
Species/Cell Type: Human, Sex: Male, Assay Type: Sperm morphology, Assay Code: SPHT, Evaluation Type: Evaluation A (Pre-1980)
  mutagenic call: no conclusion
Species/Cell Type: Mammalian polychromatic erythrocytes, Assay Type: Micronucleus test, chromosome aberrations, Assay Code: MNT+, Evaluation Type: Evaluation A (Pre-1980)
  mutagenic call: active; positive
Species/Cell Type: Mouse (BALB/c-3T3) cells, Assay Type: Cell transformation, Assay Code: CTB-, Evaluation Type: Evaluation A (Pre-1980)
  mutagenic call: inactive; negative
Species/Cell Type: Mouse lymphoma (L5178Y) cells, Assay Type: Forward gene mutation at the thymidine kinase (TK) locus, chromosome aberrations, Assay Code: L51+, Evaluation Type: Evaluation A (Pre-1980)
  mutagenic call: active; positive
Species/Cell Type: Mouse, Sex: Male, Assay Type: Sperm morphology, Assay Code: SPIT, Evaluation Type: Evaluation A (Pre-1980)
  mutagenic call: no conclusion
Species/Cell Type: Neurospora crassa, Assay Type: Aneuploidy, chromosome aberrations, Assay Code: NEN-, Evaluation Type: Evaluation A (Pre-1980)
  mutagenic call: inactive; negative
[3]
  call: active; positive
Species/Cell Type: Nonhuman, Assay Type: Sister-chromatid exchange (SCE) in vitro, Assay Code: SC2+, Evaluation Type: Evaluation B (Post-1980)
  mutagenic call: active; positive
Species/Cell Type: Nonhuman, Assay Type: Sister-chromatid exchange (SCE) in vitro, Assay Code: SC2-, Evaluation Type: Evaluation A (Pre-1980)
  mutagenic call: inactive; negative
Species/Cell Type: Nonhuman, Assay Type: Sister-chromatid exchange (SCE) in vivo, Assay Code: SC3+, Evaluation Type: Evaluation B (Post-1980)
  mutagenic call: active; positive
[4]
  mutagenic call: inactive; negative
Species/Cell Type: Salmonella typhimurium, Assay Type: Forward and reverse gene mutation, body fluid assay, Assay Code: BFU-, Evaluation Type: Evaluation A (Pre-1980)
  mutagenic call: inactive; negative
Species/Cell Type: Syrian hamster embryo (SHE) cells, Assay Type: Cell transformation, clonal assay, Assay Code: CTCT, Evaluation Type: Evaluation A (Pre-1980)
  mutagenic call: no conclusion
Species/Cell Type: Tradescantia species, Assay Type: Gene mutation, Assay Code: TRM+D, Dose Response: With dose response, Evaluation Type: Evaluation A (Pre-1980)
  mutagenic call: active; positive

## CCN(Cc1cccc(S(=O)(=O)[O-])c1)c1ccc(C(=C2C=CC(=[N+](C)C)C=C2)c2ccc(N(CC)Cc3cccc(S(=O)(=O)O)c3)cc2)cc1
Species/Cell Type: Bacillus subtilis (H17 vs M45), Assay Type: Rec-assay, spot test, DNA effects (bacterial DNA repair), Assay Code: REWT, Evaluation Type: Evaluation A (Pre-1980)
  mutagenic call: no conclusion
Species/Cell Type: Bacillus subtilis (H17 vs M45T), Assay Type: Rec-assay, spot test, DNA effects (bacterial DNA repair), Assay Code: REXT, Evaluation Type: Evaluation A (Pre-1980)
  mutagenic call: no conclusion
[3]
  call: active; positive
[4]
  mutagenic call: inactive; negative

## CCC(C)c1cc([N+](=O)[O-])cc([N+](=O)[O-])c1OC(C)=O (stereo unspecified)
[5]
  mutagenic call: inactive; negative

## O=C1c2cccc(O)c2C(=O)c2c(O)cc(CO)cc21
Species/Cell Type: Salmonella typhimurium (one or more of the five standard strains: TA98, TA100, TA1535, TA1537, and TA1538), Assay Type: Histidine reverse gene mutation, Ames assay, Assay Code: SAL+/-*, Activation: With metabolic activation, Evaluation Type: Evaluation A (Pre-1980)
  mutagenic call: inactive; positive without activation, negative with activation

## OCCN(CCO)c1nc(-c2cccs2)nc2ccccc12
[6]
  mutagenic call: no conclusion

## C#CC(C)N(C)C(=O)Nc1ccc(Cl)cc1 (stereo unspecified)
[5]
  mutagenic call: inactive; negative

## C[C@]12CC[C@@H]3c4ccc(O)cc4CC[C@H]3[C@@H]1CC[C@@H]2O
Species/Cell Type: Human lymphocytes, Assay Type: Sister-chromatid exchange (SCE) in vitro, Assay Code: SCL-*, Activation: With metabolic activation, Evaluation Type: Evaluation B (Post-1980)
  mutagenic call: inactive; negative
Species/Cell Type: Human lymphocytes, Assay Type: Sister-chromatid exchange (SCE) in vitro, Assay Code: SCL-, Evaluation Type: Evaluation B (Post-1980)
  mutagenic call: inactive; negative
Species/Cell Type: Human, Assay Type: Sister-chromatid exchange (SCE) in vitro, Assay Code: SC1-, Evaluation Type: Evaluation B (Post-1980)
  mutagenic call: inactive; negative
Species/Cell Type: Mouse, Sex: Male, Assay Type: Sperm morphology, Assay Code: SPI+, Evaluation Type: Evaluation A (Pre-1980)
  mutagenic call: active; positive
[3]
  call: active; positive
[7]
  mutagenic call: no conclusion
Species/Cell Type: Rat, Sex: Male, Assay Type: Sperm morphology, Assay Code: SPA+, Evaluation Type: Evaluation A (Pre-1980)
  mutagenic call: active; positive

## COc1ccc(/C=N/NC(=O)COc2ccc(Br)cc2CN(C)C)cc1
Species/Cell Type: Saccharomyces cerevisiae, Assay Type: Reverse gene mutation, Assay Code: YERT, Evaluation Type: Evaluation A (Pre-1980)
  mutagenic call: no conclusion

## C=CC(OC(C)=O)c1ccc(OC)c2ccccc12 (stereo unspecified)
[8]
  mutagenic call: active; positive

## CC(=O)O[C@H]1[C@H]2O[C@H]2C2=CC(=O)[C@]3(C[C@]2(C)[C@H]1C)O[C@]3(C)C=O
Species/Cell Type: Bacillus subtilis (H17 vs M45), Assay Type: Rec-assay, spot test, DNA effects (bacterial DNA repair), Assay Code: REW+, Evaluation Type: Evaluation A (Pre-1980)
  mutagenic call: active; positive
Species/Cell Type: Neurospora crassa, Assay Type: Reverse gene mutation, Assay Code: NER+, Evaluation Type: Evaluation A (Pre-1980)
  mutagenic call: active; positive
[7]
  mutagenic call: no conclusion
Species/Cell Type: Saccharomyces cerevisiae, Assay Type: Mitotic recombination or gene conversion, Assay Code: YEC+/-*, Activation: With metabolic activation, Evaluation Type: Evaluation A (Pre-1980)
  mutagenic call: inactive; positive without activation, negative with activation
Species/Cell Type: Saccharomyces cerevisiae, Assay Type: Mitotic recombination or gene conversion, Assay Code: YEH+, Evaluation Type: Evaluation A (Pre-1980)
  mutagenic call: active; positive
Species/Cell Type: Saccharomyces cerevisiae, Assay Type: Reverse gene mutation, Assay Code: YER+, Evaluation Type: Evaluation A (Pre-1980)
  mutagenic call: active; positive
[6]
  mutagenic call: no conclusion

## COc1cc2c(c3oc(=O)c4c(c13)C(O)CC4O)[C@@H]1C=CO[C@@H]1O2 (stereo partly specified)
Species/Cell Type: Salmonella typhimurium (one or more of the five standard strains: TA98, TA100, TA1535, TA1537, and TA1538), Assay Type: Histidine reverse gene mutation, Ames assay, Assay Code: SAL+*, Activation: With metabolic activation, Evaluation Type: Evaluation A (Pre-1980)
  mutagenic call: active; positive

## CC(C)(C)Cl
[1]
  mutagenic call: no conclusion

## O=[N+]([O-])c1ccc(O/N=C/c2cc(Br)c(O)c(Br)c2)c([N+](=O)[O-])c1
[5]
  mutagenic call: inactive; negative

## OC[C@H]1O[C@@H](n2cnc3cncnc32)[C@H](O)[C@@H]1O
Species/Cell Type: Arabidopsis species, Assay Type: Gene mutation, Assay Code: ARM-, Evaluation Type: Evaluation A (Pre-1980)
  mutagenic call: inactive; negative

## CC(C)CN(N=O)/C(N)=N/[N+](=O)[O-]
[9]
  mutagenic call: active; positive
[8]
  mutagenic call: active; positive

## CCn1c(=O)n(C)c2c(=O)n(C)c(=O)n(C)c21
Species/Cell Type: Allium cepa, Assay Type: Chromosome aberrations, Assay Code: ALC+D, Dose Response: With dose response, Evaluation Type: Evaluation A (Pre-1980)
  mutagenic call: active; positive

## CCC(COS(C)(=O)=O)(COS(C)(=O)=O)COS(C)(=O)=O
[9]
  mutagenic call: active; positive

## C/C=C1\C[C@H]2[C@@H](OC)Nc3cc(O)c(OC)cc3C(=O)N2C1
Species/Cell Type: Mammalian polychromatic erythrocytes, Assay Type: Micronucleus test, chromosome aberrations, Assay Code: MNTT, Evaluation Type: Evaluation B (Post-1980)
  mutagenic call: no conclusion

## O=C(NC(=O)c1c(F)cccc1F)Nc1ccc(Cl)cc1
Species/Cell Type: Mammalian polychromatic erythrocytes, Assay Type: Micronucleus test, chromosome aberrations, Assay Code: MNTT, Evaluation Type: Evaluation A (Pre-1980)
  mutagenic call: no conclusion
Species/Cell Type: Mouse lymphoma (L5178Y) cells, Assay Type: Forward gene mutation at the thymidine kinase (TK) locus, chromosome aberrations, Assay Code: L51T, Evaluation Type: Evaluation A (Pre-1980)
  mutagenic call: no conclusion
[4]
  mutagenic call: inactive; negative

## CSC\C=C(C)/C=C\C=C(C)/C=C\C1=C(C)CCCC1(C)C
[2]
  mutagenic call: active; positive
